From paper doi:10.1101/2024.08.25.609621 (bioRxiv, 2024)
Several values for one entry are separate records, joined by “and”; a condition that tells them apart may be missing. Equal values may be shown once. Read-outs that look alike come from different tables or passages of the source.

Legend:
[1] = target: SARS-CoV-2 NSP3 macrodomain (Mac1) (Severe acute respiratory syndrome coronavirus 2, UniProt P0DTD1); experiment: biochemical; format: binding; settings: for Hill slope: HTRF dose-response fit, Mac1; for SARS CoV-2 macrodomain HTRF assay: Hillslope: dose-response fit
[2] = target: SARS-CoV-2 NSP3 macrodomain (Mac1), P43 crystal form (Severe acute respiratory syndrome coronavirus 2, UniProt P0DTD1); format: binding; settings: for 1-BDC: PanDDA background density correction; for Total number of conformations: ligand conformations modeled in Mac1 crystal structure; for X-ray crystallography: Binding site: site where the ligand is bound in the X-ray crystal structure
[3] = crystal soak 10 mM, P43 crystals
[4] = occupancy estimate from PanDDA BDC
[5] = TRUE = crystal structure with ligand determined
[6] = crystal soak, soak concentration 10 mM, P43 crystals, TRUE = ligand-binding event identified
[7] = crystal soak, soak concentration 10 mM
[8] = crystal soak, soak concentration 10 mM, event 1
[9] = occupancy estimate from PanDDA 1-BDC
[10] = site of Mac1 where ligand bound in crystal structure
[11] = crystal soak concentration 20 mM
[12] = crystal soak concentration 20 mM, P43 crystals
[13] = X-ray crystal structure determined (TRUE)
[14] = crystal soak, soak concentration 10 mM, TRUE = ligand hit
[15] = site of ligand in X-ray crystal structure
[16] = soak concentration 10 mM, TFA/DMSO background map
[17] = dose-response, read-out: SARS CoV-2 macrodomain HTRF assay: IC50

Row | Compound | 1-BDC [2] | Total number of conformations [2] | X-ray crystallography: Binding site [2] | 2*(1-BDC) (%) [2, 9] [%] | Pandda run, overall: Modeled [2, 7] | Pandda run, overall: Hit [2, 14] | PanDDA run, DMSO background map: 1-BDC ([2]; soak concentration 10 mM) | PanDDA run, DMSO background map: Hit ([2]; soak concentration 10 mM) | further results
1 | C[C@H]1CC[C@H](CO)N(c2ncnc3[nH]ccc23)C1 (racemic) [AVI-4063] | 0.16 | 1 | Adenosine |  |  |  |  |  | Hill slope [1]: 1.1; SARS CoV-2 macrodomain HTRF assay: Hillslope [1]: 1.1; Occupancy difference (refined_occupancy - 2*(1-BDC)) [2]: 18; Refined ligand occupancy (%) [2]: 50%; Hit (PanDDA run, overall) [2, 3]: TRUE; Hit (PanDDA run, DMSO background map) ([2]; crystal soak 10 mM): TRUE; 1-BDC (PanDDA run, DMSO background map) ([2]; crystal soak 10 mM, event 1): 0.21 and 0.16; 2*(1-BDC) (%) [2, 4]: 32%
2 | C[C@@H]1CCN(c2ncnc3[nH]ccc23)[C@H](CO)C1 (racemic) [AVI-4064] | 0.19 | 2 | Adenosine |  |  |  |  |  | Hill slope [1]: 1.2; SARS CoV-2 macrodomain HTRF assay: Hillslope [1]: 1.2; Occupancy difference (refined_occupancy - 2*(1-BDC)) [2]: 0; Refined ligand occupancy (%) [2]: 38%; Hit (PanDDA run, overall) [2, 3]: TRUE; Hit (PanDDA run, DMSO background map) ([2]; crystal soak 10 mM): TRUE; 1-BDC (PanDDA run, DMSO background map) ([2]; crystal soak 10 mM, event 1): 0.19; 2*(1-BDC) (%) [2, 4]: 38%
3 | c1ccc(-n2nnnc2CSc2nnc(NC3CC3)s2)cc1 [AVI-286] | 0.11 | 1 |  | 22 |  |  |  |  | Average % competition ([1]; Single dose, 200 μM, mean of three technical replicates): 0%; X-ray crystal structure [2, 5]: TRUE; Pandda run, overall: Hit [2, 6]: TRUE; PanDDA run, DMSO background map: Hit [2, 7]: TRUE; PanDDA run, DMSO background map: Modeled [2, 7]: TRUE; PanDDA run, DMSO background map: 1-BDC [2, 8]: 0.11; Pandda run, overall: Modeled ([2]; crystal soak, soak concentration 10 mM, TRUE = ligand modeled): TRUE; Binding site [2, 10]: Distal
4 | O=C(O)C(c1ccccc1)n1sc2ccccc2c1=O (stereo not shown) [AVI-288] | 0.37 | 1 |  |  |  |  |  |  | IC50 ([1]; Dose-response, SARS CoV-2 macrodomain HTRF assay, read-out: IC50): > 1000 µM; inhibition at 200 µM ([1]; Single dose, 200 μM, mean of three technical replicates, read-out: Average % competition): 21%; inhibition at 200 µM ([1]; preliminary screen, compound at 200 μM, mean of 3-4 technical replicates, read-out: % competition in HTRF assay): 21%; Occupancy difference (refined_occupancy - 2*(1-BDC)) [2]: 0; Refined ligand occupancy (%) [2]: 74%; X-ray crystal structure [2, 5]: TRUE; PanDDA run, DMSO background map: Hit [2, 11]: TRUE; PanDDA run, DMSO background map: Modeled [2, 11]: TRUE; PanDDA run, DMSO background map: 1-BDC ([2]; crystal soak concentration 20 mM, event 1): 0.37; Pandda run, overall: Hit [2, 12]: TRUE; Pandda run, overall: Modeled [2, 12]: TRUE; Pandda run, overall: Modeling comment [2, 7]: Duplicate, not modeled; Pandda run, overall: Hit [2, 6]: TRUE; PanDDA run, DMSO background map: Hit [2, 7]: TRUE; PanDDA run, DMSO background map: 1-BDC [2, 8]: 0.26; 2*(1-BDC) (%) [2, 4]: 74%; Binding site [2, 10]: Adenosine
5 | OCC(Cc1cccs1)Nc1ncnc2[nH]ccc12 (stereo not shown) [AVI-3711] | 0.21 | 1 |  | 42 | TRUE | TRUE | 0.21 | TRUE | X-ray crystal structure [2, 13]: TRUE; Binding site [2, 15]: Adenosine
6 | O=C(O)C(F)(F)F.OCC1C2C=CC(C2)N1c1ncnc2[nH]ccc12 (stereo not shown) [AVI-3712] |  |  |  |  |  | TRUE | 0.15 | TRUE | Pandda run, overall: Modeling comment [2, 7]: Weak density, not modeled; PanDDA run, TFA/DMSO background map: 1-BDC [2, 16]: 0.05; PanDDA run, TFA/DMSO background map: Hit [2, 16]: TRUE
7 | CC(C)(C)C(O)CC(CO)Nc1ncnc2[nH]ccc12.O=C(O)C(F)(F)F (stereo not shown) [AVI-3714] |  |  |  |  |  |  |  |  | Pandda run, overall: Modeling comment [2, 7]: TFA only
8 | OCC(Nc1ncnc2[nH]ccc12)c1ccccc1 (stereo not shown) [AVI-3715] | 0.18 | 1 |  | 36 | TRUE | TRUE | 0.18 | TRUE | X-ray crystal structure [2, 13]: TRUE; Binding site [2, 15]: Adenosine
9 | OCC1COCCN1c1ncnc2[nH]ccc12 (stereo not shown) [AVI-3717] | 0.14 | 2 | Adenosine | 28 | TRUE | TRUE | 0.14 | TRUE | 
10 | CC(C)(C)C1CCC(CO)N(c2ncnc3[nH]ccc23)C1 (stereo not shown) [AVI-3719] | 0.08 | 1 | Adenosine | 16 | TRUE | TRUE | 0.08 | TRUE | Phe132 loop open state ([2]; TRUE = open state of Phe132 loop modeled): TRUE
11 | CN1CCN(c2ncnc3[nH]ccc23)C(CO)C1 (stereo not shown) [AVI-3721] | 0.06 | 2 | Adenosine | 12 | TRUE | TRUE | 0.06 | TRUE | 
12 | CC(C)(C)[C@@H]1CCN(c2ncnc3[nH]ccc23)[C@H](CO)C1 [AVI-3722] | 0.11 | 1 | Adenosine | 22 | TRUE | TRUE | 0.11 | TRUE | 
13 | CC1(C)CCC(CO)N(c2ncnc3[nH]ccc23)C1 (stereo not shown) [AVI-3726] | 0.17 | 3 | Adenosine | 34 | TRUE | TRUE | 0.17 | TRUE | 
14 | OCC1CC2(CCCCC2)CN1c1ncnc2[nH]ccc12 (stereo not shown) [AVI-3727] | 0.29 | 1 | Adenosine | 58 | TRUE | TRUE | 0.29 | TRUE | Pandda run, overall: Modeling comment [2, 7]: Distal site, weak density, not modeled
15 | OCC1CC2(CCC2)CN1c1ncnc2[nH]ccc12 (stereo not shown) [AVI-3728] | 0.24 | 2 | Adenosine | 48 | TRUE | TRUE | 0.24 | TRUE | Pandda run, overall: Modeling comment [2, 7]: Distal site, weak density, not modeled
16 | C[C@@H](O)[C@H](CO)Nc1ncnc2[nH]ccc12.O=C(O)C(F)(F)F [AVI-3730] | 0.14 | 1 |  | 28 | TRUE | TRUE | 0.14 | TRUE | X-ray crystal structure [2, 13]: TRUE; Binding site [2, 15]: Adenosine
17 | Cc1nn(C)cc1C1CCC(CO)N1c1ncnc2[nH]ccc12 (stereo not shown) [AVI-3733] | 0.1 | 1 | Adenosine | 20 |  |  |  |  | Pandda run, overall: Hit [2, 3]: TRUE; Pandda run, overall: Modeled [2, 3]: TRUE; PanDDA run, DMSO background map: 1-BDC ([2]; crystal soak 10 mM): 0.1; PanDDA run, DMSO background map: Hit ([2]; crystal soak 10 mM): TRUE
18 | OCC1CCC2(CCOCC2)CN1c1ncnc2[nH]ccc12 (stereo not shown) [AVI-4065] |  |  |  |  |  |  |  |  | Hill slope [1]: 1.2; SARS CoV-2 macrodomain HTRF assay: Hillslope [1]: 1.2
19 | Cc1c[nH]c2ncnc(NCC3(O)CC[S+]([O-])CC3)c12 (stereo not shown) [AVI-4198] |  |  |  |  |  |  |  |  | IC50 [1, 17]: > 1000 µM
20 | Cc1c[nH]c2ncnc(NCC3(O)CCS(=O)(=O)CC3)c12 [AVI-4199] |  |  |  |  |  |  |  |  | IC50 [1, 17]: > 1000 µM
21 | OC1(CNc2ncnc3[nH]ccc23)CCC2(CC1)OCCO2 [AVI-4315] |  |  |  |  |  |  |  |  | Hill slope [1]: 1.2; SARS CoV-2 macrodomain HTRF assay: Hillslope [1]: 1.2
22 | O=S1(=O)CCC(O)(CNc2ncnc3[nH]ccc23)CC1 [AVI-4316] |  |  |  |  |  |  |  |  | IC50 [1, 17]: > 1000 µM
23 | CC(Nc1ncnc2[nH]ccc12)C1(O)CCCCC1 (stereo not shown) [AVI-4321] |  |  |  |  |  |  |  |  | Hill slope [1]: 1.2; SARS CoV-2 macrodomain HTRF assay: Hillslope [1]: 1.2
24 | CC(O)C(C)Nc1ncnc2[nH]ccc12 (stereo not shown) [AVI-5158] | 0.17 | 2 |  |  |  |  |  |  | Occupancy difference (refined_occupancy - 2*(1-BDC)) [2]: 0; Refined ligand occupancy (%) [2]: 34%; PanDDA run, DMSO background map: 1-BDC ([2]; event 1): 0.17; X-ray crystal structure [2, 13]: TRUE; 2*(1-BDC) (%) [2, 4]: 34%; Binding site [2, 15]: Adenosine
25 | CC(C)C1CCCN1c1ncnc2[nH]ccc12 (stereo not shown) [AVI-5216] | 0.13 | 1 | Adenosine |  |  |  |  |  | Occupancy difference (refined_occupancy - 2*(1-BDC)) [2]: 14; Refined ligand occupancy (%) [2]: 40%; PanDDA run, DMSO background map: 1-BDC ([2]; event 1): 0.13; 2*(1-BDC) (%) [2, 4]: 26%
26 | FC(F)(F)C1CCCN1c1ncnc2[nH]ccc12 (stereo not shown) [AVI-5996] |  |  |  |  |  |  |  |  | IC50 [1, 17]: > 1000 µM
